Laboratory results taken from patent US6441020B1, “Protein kinase C modulators. W” (priority 1995, dated 2002).

Key:
Raji cells = conditions: Irie and Koshimizu 1988; cited from earlier work
[1] = test system: protein kinase C preparation; conditions: Irie and Koshimizu 1988; cited from earlier work
protein kinase Cα = biological target: T1, protein kinase Cα (Bos taurus, UniProt P04409); assay: [3H]PDBu receptor binding assay, protein kinase C α
T1 construct: Successful full-length expression of each isotype was confirmed by immunoblotting; made in house; host or cells: Sf9 or Sf158 insect cells (baculovirus)
Source text: (§1) Recombinant protein kinase Cα, β1, γ, ε, η, θ and μ were obtained as crude cell preparations as follows. The protein kinase C isotypes were expressed in Sf9 or Sf158 insect cells using recombinant baculoviruses as described (Patel and Stabel, 1989; Stabel, Schaap and Parker, 1991; Johannes et al., 1994). In the case of the θ isotype, human protein kinase Cθ was cloned in the plasmid vector pFlag-Mac and the protein expressed in E. coli strain DH5. Successful full-length expression of each isotype was confirmed by immunoblotting of infected insect cell or E. coli lysates with isotype-specific antibodies (Marais and Parker, 1989) as described (Liyange et al, 1992). Sf9 or Sf158 cells were infected with recombinant baculovirus isolates containing the specified protein kinase C isotype cDNAs (Parker et al, 1986; Coussens et al, 1986) or a non-protein kinase C-related adenovirus E1 a gene (Patel and Jones, 1990). After 3 days infected and uninfected control cells were collected by centrifugation at 600 RCF for 15 min and frozen. […]
(§2) The assay was carried out in 0.5 mL polypropylene centrifuge tubes. […] Specific and nonspecific binding values were then determined as described (Driedger and Blumberg, 1980b). […]

protein kinase C γ = biological target: T2, protein kinase C γ (Bos taurus, UniProt P05128); assay: [3H]PDBu receptor binding assay, protein kinase C γ
T2 construct: Successful full-length expression of each isotype was confirmed by immunoblotting; made in house; host or cells: Sf9 or Sf158 insect cells (baculovirus)
Source text: as §1, §2

protein kinase C δ = biological target: T3, protein kinase C δ (Homo sapiens, UniProt Q05655); assay: [3H]PDBu receptor binding assay, protein kinase C δ
T3 construct: made in house

protein kinase C ε = biological target: T4, protein kinase C ε (Homo sapiens, UniProt Q02156); assay: [3H]PDBu receptor binding assay, protein kinase C ε
T4 construct: Successful full-length expression of each isotype was confirmed by immunoblotting; made in house; host or cells: Sf9 or Sf158 insect cells (baculovirus)
T4 sequence (Q02156 1-737): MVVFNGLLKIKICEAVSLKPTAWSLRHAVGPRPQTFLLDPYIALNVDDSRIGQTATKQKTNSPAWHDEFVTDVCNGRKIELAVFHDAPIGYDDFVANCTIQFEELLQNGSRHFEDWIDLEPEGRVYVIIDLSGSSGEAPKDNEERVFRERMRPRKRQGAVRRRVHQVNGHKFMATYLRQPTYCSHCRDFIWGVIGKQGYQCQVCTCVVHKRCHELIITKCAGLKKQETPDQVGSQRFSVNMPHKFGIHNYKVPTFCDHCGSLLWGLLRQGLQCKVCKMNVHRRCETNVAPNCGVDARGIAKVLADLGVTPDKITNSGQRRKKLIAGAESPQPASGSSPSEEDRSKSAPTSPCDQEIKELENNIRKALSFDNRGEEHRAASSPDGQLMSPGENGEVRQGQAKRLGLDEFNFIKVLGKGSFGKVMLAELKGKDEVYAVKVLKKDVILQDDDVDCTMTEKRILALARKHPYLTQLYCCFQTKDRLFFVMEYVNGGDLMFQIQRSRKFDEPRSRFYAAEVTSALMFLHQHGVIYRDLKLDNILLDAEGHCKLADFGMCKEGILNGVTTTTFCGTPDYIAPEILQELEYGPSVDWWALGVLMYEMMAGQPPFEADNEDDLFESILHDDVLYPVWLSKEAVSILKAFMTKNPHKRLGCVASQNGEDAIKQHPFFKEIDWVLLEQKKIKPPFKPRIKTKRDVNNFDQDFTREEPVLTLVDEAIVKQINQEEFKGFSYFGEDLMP
Source text: as §1, §2

protein kinase C η = biological target: T5, protein kinase C η (Homo sapiens, UniProt P24723); assay: [3H]PDBu receptor binding assay, protein kinase C η
T5 construct: Successful full-length expression of each isotype was confirmed by immunoblotting; made in house; host or cells: Sf9 or Sf158 insect cells (baculovirus)
Source text: as §1, §2

human protein kinase Cθ = biological target: T6, human protein kinase Cθ (Homo sapiens, UniProt Q04759); assay: [3H]PDBu receptor binding assay, protein kinase C θ
T6 construct: Successful full-length expression of each isotype was confirmed by immunoblotting; FLAG (from vector pFlag-Mac); made in house; host or cells: E. coli strain DH5
Source text: as §1, §2

protein kinase C μ = biological target: T7, protein kinase C μ (Homo sapiens, UniProt Q15139); assay: [3H]PDBu receptor binding assay, protein kinase C μ
T7 construct: Successful full-length expression of each isotype was confirmed by immunoblotting; made in house; host or cells: Sf9 or Sf158 insect cells (baculovirus)
T7 sequence (Q15139 1-912): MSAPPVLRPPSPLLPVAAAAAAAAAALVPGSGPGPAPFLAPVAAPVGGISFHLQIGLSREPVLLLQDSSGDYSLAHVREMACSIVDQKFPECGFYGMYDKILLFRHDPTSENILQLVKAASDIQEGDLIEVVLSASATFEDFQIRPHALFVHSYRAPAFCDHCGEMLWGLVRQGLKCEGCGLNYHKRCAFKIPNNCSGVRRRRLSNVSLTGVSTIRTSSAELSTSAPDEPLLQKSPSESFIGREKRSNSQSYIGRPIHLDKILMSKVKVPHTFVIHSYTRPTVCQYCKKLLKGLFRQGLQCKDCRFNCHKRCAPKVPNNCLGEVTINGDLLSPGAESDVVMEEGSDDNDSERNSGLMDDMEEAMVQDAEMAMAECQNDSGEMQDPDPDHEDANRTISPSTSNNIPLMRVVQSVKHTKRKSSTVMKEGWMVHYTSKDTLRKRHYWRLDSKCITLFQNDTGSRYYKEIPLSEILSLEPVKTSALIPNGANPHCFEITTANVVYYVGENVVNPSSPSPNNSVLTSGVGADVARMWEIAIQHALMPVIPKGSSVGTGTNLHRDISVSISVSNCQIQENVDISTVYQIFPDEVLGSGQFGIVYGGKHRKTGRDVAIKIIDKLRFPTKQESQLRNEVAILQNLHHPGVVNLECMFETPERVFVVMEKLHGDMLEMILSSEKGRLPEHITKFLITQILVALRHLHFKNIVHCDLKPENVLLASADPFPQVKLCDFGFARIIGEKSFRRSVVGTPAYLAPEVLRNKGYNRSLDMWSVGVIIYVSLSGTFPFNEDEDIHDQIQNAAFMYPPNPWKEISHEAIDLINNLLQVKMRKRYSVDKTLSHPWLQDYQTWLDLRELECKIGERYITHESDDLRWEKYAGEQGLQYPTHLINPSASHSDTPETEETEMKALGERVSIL
Source text: as §1, §2

[2] = test system: phorbol 12-myristate 13-acetate induced ear inflammation/erythema; assay: Mouse ear anti-inflammatory test against phorbol 12-myristate 13-acetate; type: in vivo, mice
Procedure: Method: A stock solution of 300 pmoles of the standard inflammatory compound phorbol 12-myristate 13-acetate per 5 μL acetone was prepared. This solution was used to prepare ten-fold dilutions of N^1,14-O-digeranyl-(9S,12S)-indolactam V, prepared as in Example 8, covering concentrations of the latter ranging from 3,500 to 350,000 pmoles per 5 μL.

T3 sequence (Q05655 whole entry): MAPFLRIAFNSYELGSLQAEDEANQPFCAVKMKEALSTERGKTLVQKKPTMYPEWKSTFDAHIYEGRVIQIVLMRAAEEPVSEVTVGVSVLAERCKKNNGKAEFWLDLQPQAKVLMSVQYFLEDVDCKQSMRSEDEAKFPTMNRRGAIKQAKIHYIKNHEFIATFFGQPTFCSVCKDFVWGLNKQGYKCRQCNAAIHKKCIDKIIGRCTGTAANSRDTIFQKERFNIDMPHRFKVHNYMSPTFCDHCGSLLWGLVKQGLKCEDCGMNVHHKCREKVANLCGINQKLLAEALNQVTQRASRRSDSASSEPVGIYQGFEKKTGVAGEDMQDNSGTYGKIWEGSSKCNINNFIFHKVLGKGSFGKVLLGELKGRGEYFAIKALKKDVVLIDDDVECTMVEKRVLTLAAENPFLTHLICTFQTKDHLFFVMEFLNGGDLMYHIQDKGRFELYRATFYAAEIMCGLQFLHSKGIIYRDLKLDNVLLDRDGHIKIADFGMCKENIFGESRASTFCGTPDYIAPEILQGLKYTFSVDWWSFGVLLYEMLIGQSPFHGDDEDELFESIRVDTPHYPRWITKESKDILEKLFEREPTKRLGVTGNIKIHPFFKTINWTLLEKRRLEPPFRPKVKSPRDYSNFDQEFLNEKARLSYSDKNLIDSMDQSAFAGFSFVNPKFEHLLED
T6 sequence (Q04759 whole entry): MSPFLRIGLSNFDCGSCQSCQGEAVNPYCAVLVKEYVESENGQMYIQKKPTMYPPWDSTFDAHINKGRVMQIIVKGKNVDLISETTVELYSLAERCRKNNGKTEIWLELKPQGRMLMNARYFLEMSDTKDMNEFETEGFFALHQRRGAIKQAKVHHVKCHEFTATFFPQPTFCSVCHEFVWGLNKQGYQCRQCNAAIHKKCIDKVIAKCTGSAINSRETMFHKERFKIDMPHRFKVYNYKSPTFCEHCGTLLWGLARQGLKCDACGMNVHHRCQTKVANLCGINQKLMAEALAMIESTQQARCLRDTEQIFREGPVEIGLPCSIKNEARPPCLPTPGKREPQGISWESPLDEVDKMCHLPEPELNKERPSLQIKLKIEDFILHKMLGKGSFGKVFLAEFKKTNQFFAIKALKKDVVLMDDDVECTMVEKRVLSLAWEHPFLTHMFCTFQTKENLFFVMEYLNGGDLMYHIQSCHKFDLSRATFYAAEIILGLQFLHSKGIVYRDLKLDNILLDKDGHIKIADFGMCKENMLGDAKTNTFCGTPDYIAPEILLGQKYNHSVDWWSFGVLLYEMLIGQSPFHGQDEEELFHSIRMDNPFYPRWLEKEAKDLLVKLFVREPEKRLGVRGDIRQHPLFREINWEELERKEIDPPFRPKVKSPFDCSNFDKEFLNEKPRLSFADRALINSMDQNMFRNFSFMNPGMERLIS
T5 sequence (P24723 whole entry): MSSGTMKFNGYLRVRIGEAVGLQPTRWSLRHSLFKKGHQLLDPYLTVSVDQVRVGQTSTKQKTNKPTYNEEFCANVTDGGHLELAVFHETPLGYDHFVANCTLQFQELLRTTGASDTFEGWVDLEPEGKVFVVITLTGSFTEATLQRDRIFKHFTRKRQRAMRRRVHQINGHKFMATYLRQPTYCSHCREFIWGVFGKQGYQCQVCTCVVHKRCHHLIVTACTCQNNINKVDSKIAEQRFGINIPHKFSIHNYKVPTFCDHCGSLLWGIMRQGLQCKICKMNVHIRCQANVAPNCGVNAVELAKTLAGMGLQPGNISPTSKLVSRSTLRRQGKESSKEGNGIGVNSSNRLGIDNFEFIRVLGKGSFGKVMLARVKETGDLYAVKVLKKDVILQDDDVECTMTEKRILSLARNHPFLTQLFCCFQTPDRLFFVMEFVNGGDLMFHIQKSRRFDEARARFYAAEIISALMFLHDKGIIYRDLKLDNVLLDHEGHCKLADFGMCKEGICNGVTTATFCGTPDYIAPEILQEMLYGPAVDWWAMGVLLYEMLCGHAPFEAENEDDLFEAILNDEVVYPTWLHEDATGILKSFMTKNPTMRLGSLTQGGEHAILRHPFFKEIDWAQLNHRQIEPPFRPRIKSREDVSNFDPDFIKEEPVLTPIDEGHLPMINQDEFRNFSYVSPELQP

For `CCCCOC[C@@H]1Cc2c[nH]c3cccc(c23)N(C)[C@@H](C(C)C)C(=O)N1` [(−)-14-O-butylindolactam V], the “Induction of Epstein-Barr virus early antigen” value (“Induction” for short) (Raji cells) is listed as “no induction of the Epstein-Barr virus early antigen in Raji cells could be detected”.
For (−)-indolactam V, the “Induction” value (Raji cells) is listed as “very active” and the “Inhibition of binding of [3H]PMA to a protein kinase C preparation” value [1] is listed as “very active”.
In the case of `COC[C@@H]1Cc2c[nH]c3cccc(c23)N(C)[C@@H](C(C)C)C(=O)N1` [(−)-14-O-methylindolactam V, 14-O-methyl-(9S,12S)-indolactam V], the “Induction” value (Raji cells) is given as “no induction of the Epstein-Barr virus early antigen in Raji cells could be detected” and the “Inhibition of binding of [3H]PMA to a protein kinase C preparation” value [1] is given as “did not measurably inhibit”.
For `CCCCCCOC[C@@H]1Cc2c[nH]c3cccc(c23)N(C)[C@@H](C(C)C)C(=O)N1` [(−)-O-hexylindolactam V, 14-O-hexyl-(9S,12S)-indolactam V], the “Induction” value (Raji cells) is listed as “no induction of the Epstein-Barr virus early antigen in Raji cells could be detected”.
In the case of `CC(C)=CCC/C(C)=C/COC[C@@H]1Cc2cn(C/C=C(\C)CCC=C(C)C)c3cccc(c23)N(C)[C@@H](C(C)C)C(=O)N1` [N^1,14-O-digeranyl-(9S,12S)-indolactam V, N^1,14-O-Digeranyl-(9S,12S)-indolactam V], the Ki (protein kinase Cα) is reported as 5.9 µM, the Ki (protein kinase C γ) is reported as 6.5 µM and the Ki (protein kinase C δ) is reported as 0.9 µM. The Ki (protein kinase C ε) was 0.3 µM, the Ki (protein kinase C η) was 0.5 µM and the Ki (human protein kinase Cθ) was 0.9 µM. The Ki (protein kinase C μ) was 0.5 µM, the “Persistence of inhibition of PMA induced ear inflammation” value ([2]; mouse ear, highest concentration (350,000 pmoles per 5 μL), observation to 48 hours) was “inhibition persisting for the duration of the experiment at the highest concentration” and the “Inhibition of phorbol 12-myristate 13-acetate induced ear inflammation/erythema” value ([2]; mouse right ear, topical 5 μL acetone, 300 pmoles PMA, test compound 3,500 to 350,000 pmoles per 5 μL, observed 1 to 48 hours) was “Inhibition of the phorbol 12-myristate 13-acetate induced inflammation was observed at the medium and high concentrations”.
